Consider 26 molecules from US20100120763A1, “IMIDAZO[5,1-C][1,2,4]BENZOTRIAZINE DERIVATIVES AS INHIBITORS OF PHOSPHODIESTERASES” (priority 2008, published 2010).

The target of assay [1] is T1, PDE2A (Homo sapiens, UniProt O00408).
T1 construct: made in house; host or cells: SF21 insect cells (baculovirus)
Description: Inhibition of recombinant PDE2A (expressed in baculovirus/SF21-cells), [3H]-cAMP SPA. Type of assay: biochemical. How it is done: Inhibition of Recombinant PDE2A (Expressed in Baculovirus/SF21-Cells)
PDE2A (NM002599) was cloned and the gene was inserted in the baculovirus and the enzyme-protein expressed in SF21-cells. The enzyme was isolated from these cells by harvesting the cells by an centrifugation at 200 g to collect the cells. The cells were resuspended in 50 mM Tris-HCl/5 mM MgCl2 buffer (pH=7.4) (Sigma, Deisenhofen, Germany; Merck, Darmstadt, Germany) and lysed by a sonication of the cells (three times for 15 seconds, Labsonic U, Fa. Braun, Degersheim, Switzerland, level “high”). The membrane fraction of PDE2A was obtained by a centrifugation at 48 000 g for 1 h, resuspended in buffer and stored at −70° C.
PDE2A activity was determined in a one step procedure in microtiterplates. The reaction mixture of 100 μl contained 50 mM Tris-HCl/5 mM MgCl2 buffer (pH=7.4) (Sigma, Deisenhofen, Germany; Merck, Darmstadt, Germany), 0.5 μM [3H]-cAMP (Amersham, Buckinghamshire, UK), 1000 nM cGMP and the enzyme. Non-specific enzyme activity was tested in the absence of cGMP. The reaction was initiated by addition of the substrate solution and was carried out at 37° C. for 30 minutes. Enzymatic activity then was stopped by addition of 25 μl SPA-beads (Amersham-Pharmacia). One hour later the mixture was measured in a liquid scintillation counter for microtiterplates (Microbeta Trilux). For pipetting of the incubation mixture the robot Biomek (Fa. Beckman) was routinely used.
For determination of IC50 values the Hill-plot, 2-parameter-model, was used.

Assay [2] addresses T2, PDE10A (Homo sapiens, UniProt Q9Y233).
T2 construct: made in house; host or cells: SF21 insect cells (baculovirus)
The assay is described as follows: Inhibition of recombinant PDE10A (baculovirus/SF21 system), [3H]-cAMP SPA. The class given is biochemical. Conditions: recombinant PDE10A1, cytosolic; 0.1 μM [3H]-cAMP, 37° C., 30 minutes; read-out: PDE10A IC50. On the procedure:
Inhibition of Recombinant PDE10A (Baculovirus/SF21 System)
The gene was than inserted into a baculovirus vector, ligated with the baculovirus DNA. The enzyme-protein was expressed in SF21-cells. The enzyme was isolated from these cells by harvesting the cells by an centrifugation at 500 g to collect the cells.
The cells were resuspended in 50 mM Tris-HCl/1 mM EDTA/250 mM Sucrose buffer, pH=7.4 (Sigma, Deisenhofen, Germany; Merck, Darmstadt, Germany) and lysed by sonification of the cells (three times for 15 seconds, Labsonic U, Fa. Braun, Degersheim, Switzerland, level “high”). The cytosolic PDE10A was obtained by a centrifugation at 48,000 g for 1 h in the supernatant and stored at −70° C.
PDE activity was determined in a one step procedure in microtiter plates. The reaction mixture of 100 μl contained 50 mM Tris-HCl/5 mM MgCl2 buffer (pH=7.4, Sigma, Deisenhofen, Germany; Merck, Darmstadt, Germany) 0.1 μM [3H]-cAMP (Amersham, Buckinghamshire, UK) and the enzyme. Non-specific enzyme activity was determined without the enzyme. The reaction was initiated by addition of the substrate solution and was carried out at 37° C. for 30 minutes. Enzymatic activity then was stopped by addition of 25 μl Ysi-SPA-beads (Amersham-Pharmacia). One hour later the mixture was measured in a liquid scintillation counter for microtiter plates (Microbeta Trilux). The Biomek 2000 (Beckman) was used routinely for pipetting of the incubation mixture. […] For determination of IC50 values the Hill-plot, 2-parameter-model, was used.

T2 sequence (Q9Y233 1-779 isoform Q9Y233-1): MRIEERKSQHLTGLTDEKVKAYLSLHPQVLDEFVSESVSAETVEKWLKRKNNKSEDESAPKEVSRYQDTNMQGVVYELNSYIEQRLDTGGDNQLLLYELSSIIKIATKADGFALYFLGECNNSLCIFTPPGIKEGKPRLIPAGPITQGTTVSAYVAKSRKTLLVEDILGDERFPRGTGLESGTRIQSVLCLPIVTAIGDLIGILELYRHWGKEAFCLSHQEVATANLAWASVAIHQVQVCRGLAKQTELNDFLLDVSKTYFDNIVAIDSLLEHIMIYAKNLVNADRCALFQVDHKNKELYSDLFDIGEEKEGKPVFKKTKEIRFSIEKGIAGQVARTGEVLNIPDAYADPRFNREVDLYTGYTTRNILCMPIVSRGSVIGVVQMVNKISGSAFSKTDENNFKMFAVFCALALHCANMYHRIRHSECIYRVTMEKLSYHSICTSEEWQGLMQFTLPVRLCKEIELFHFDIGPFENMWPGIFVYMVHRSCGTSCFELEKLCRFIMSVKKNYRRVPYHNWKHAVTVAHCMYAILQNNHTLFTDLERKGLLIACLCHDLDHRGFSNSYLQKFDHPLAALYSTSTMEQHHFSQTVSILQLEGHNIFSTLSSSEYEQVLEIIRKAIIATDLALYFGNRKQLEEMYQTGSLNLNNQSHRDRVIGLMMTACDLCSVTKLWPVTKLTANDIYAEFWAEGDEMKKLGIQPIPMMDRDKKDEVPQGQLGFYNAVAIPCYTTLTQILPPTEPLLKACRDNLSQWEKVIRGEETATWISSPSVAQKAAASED
T1 sequence (O00408 whole entry): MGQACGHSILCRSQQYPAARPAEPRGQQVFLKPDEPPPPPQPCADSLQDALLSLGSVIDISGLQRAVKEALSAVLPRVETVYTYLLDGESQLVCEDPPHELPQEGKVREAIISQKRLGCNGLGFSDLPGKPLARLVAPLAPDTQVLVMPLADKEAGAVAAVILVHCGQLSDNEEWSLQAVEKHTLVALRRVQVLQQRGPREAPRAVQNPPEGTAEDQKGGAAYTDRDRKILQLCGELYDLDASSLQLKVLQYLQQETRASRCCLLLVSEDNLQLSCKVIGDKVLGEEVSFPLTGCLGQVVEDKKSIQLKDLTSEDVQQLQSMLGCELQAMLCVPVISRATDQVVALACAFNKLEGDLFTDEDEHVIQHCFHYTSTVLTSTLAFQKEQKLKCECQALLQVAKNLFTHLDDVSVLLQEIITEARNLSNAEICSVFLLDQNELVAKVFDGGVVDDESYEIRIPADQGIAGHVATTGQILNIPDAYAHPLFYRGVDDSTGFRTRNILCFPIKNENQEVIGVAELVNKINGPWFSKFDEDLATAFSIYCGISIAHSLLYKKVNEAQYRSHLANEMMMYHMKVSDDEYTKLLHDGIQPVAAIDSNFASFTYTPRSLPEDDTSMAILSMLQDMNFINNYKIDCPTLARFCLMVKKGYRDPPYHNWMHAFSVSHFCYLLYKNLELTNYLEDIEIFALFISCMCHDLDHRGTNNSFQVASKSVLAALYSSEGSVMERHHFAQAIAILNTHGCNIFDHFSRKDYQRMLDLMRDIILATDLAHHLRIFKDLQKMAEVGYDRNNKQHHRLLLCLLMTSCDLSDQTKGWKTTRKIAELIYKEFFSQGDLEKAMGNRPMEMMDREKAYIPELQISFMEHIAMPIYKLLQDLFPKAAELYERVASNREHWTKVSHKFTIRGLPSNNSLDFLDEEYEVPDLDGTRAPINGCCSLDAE

For `COc1ccc(F)c(-c2nc(C)c3nnc4c(F)cc(OC)cc4n23)c1` [Example 76, 6-fluoro-1-(2-fluoro-5-methoxyphenyl)-8-methoxy-3-methylimidazo[5,1-c][1,2,4]benzotriazine], the values for the half-inhibitory concentration (IC50) in assay [1] and in assay [2] were 0.0093 µM and 0.0096 µM, respectively.

For `CCOc1ccc(Cl)c(-c2nc(C)c3nnc4c(F)cc(OC)cc4n23)c1` [Example 77, 1-(2-chloro-5-ethoxyphenyl)-6-fluoro-8-methoxy-3-methylimidazo[5,1-c][1,2,4]benzotriazine], the values for the half-maximal inhibitory concentration (IC50) in assay [1] and in assay [2] were 0.0103 µM and 0.0309 µM, respectively.

As to `COc1ccc(Cl)c(-c2nc(C)c3nnc4c(F)cc(OC)cc4n23)c1` [Example 78, 1-(2-chloro-5-methoxyphenyl)-6-fluoro-8-methoxy-3-methylimidazo[5,1-c][1,2,4]benzotriazine], the IC50 is 0.00332 µM in assay [1] and 0.00851 µM in assay [2].

As to `COc1cc(F)c2nnc3c(C)nc(-c4cc(Cl)ccc4C)n3c2c1` [Example 79, 1-(5-chloro-2-methylphenyl)-6-fluoro-8-methoxy-3-methylimidazo[5,1-c][1,2,4]benzotriazine], the results for the half-inhibitory concentration (IC50) in assay [1] and in assay [2] were 0.00839 µM and 0.0152 µM, respectively.

With `COc1cc(F)c2nnc3c(C)nc(-c4cc(F)ccc4Cl)n3c2c1` [Example 80, 1-(2-chloro-5-fluorophenyl)-6-fluoro-8-methoxy-3-methylimidazo[5,1-c][1,2,4]benzotriazine], the IC50 in assay [1] was determined as 0.00943 µM; in assay [2], 0.00709 µM.

As to `COc1cc(F)c2nnc3c(C)nc(-c4sccc4C)n3c2c1` [Example 81, 6-fluoro-8-methoxy-3-methyl-1-(3-methylthiophen-2-yl)imidazo[5,1-c][1,2,4]benzotriazine], the IC50 in assay [1] amounted to 0.0359 µM; in assay [2], 0.00943 µM.

For the molecule `COc1cc(F)c2nnc3c(C)nc(-c4cc(C(F)(F)F)ccc4Cl)n3c2c1` [Example 82, 1-[2-chloro-5-(trifluoromethyl)phenyl]-6-fluoro-8-methoxy-3-methylimidazo[5,1-c][1,2,4]benzotriazine], the figures for the IC50 in assay [1] and in assay [2] were 0.0607 µM and 0.199 µM, respectively.

As to `COc1cc(F)c2nnc3c(C)nc(-c4cc(OC(F)(F)F)ccc4Cl)n3c2c1` [Example 83, 1-[2-chloro-5-(trifluoromethoxy)phenyl]-6-fluoro-8-methoxy-3-methylimidazo[5,1-c][1,2,4]benzotriazine], the IC50 in assay [1] amounted to 0.0165 µM; in assay [2], 0.0657 µM.

Turning to `COc1cc(F)c2nnc3c(C)nc(-c4cccc(F)c4C)n3c2c1` [Example 84, 6-fluoro-1-(3-fluoro-2-methylphenyl)-8-methoxy-3-methylimidazo[5,1-c][1,2,4]benzotriazine], the concentration for half-maximal inhibition (IC50) in assay [1] was 0.061 µM; in assay [2] it was 0.0107 µM.

Turning to `COc1cc(F)c2nnc3c(C)nc(-c4c(C)nn(C)c4C)n3c2c1` [Example 85, 6-fluoro-8-methoxy-3-methyl-1-(1,3,5-trimethyl-1H-pyrazol-4-yl)imidazo[5,1-c][1,2,4]benzotriazine], the IC50 was determined as 0.0373 µM in assay [1] and 0.0552 µM in assay [2].

On to `COc1cc(F)c2nnc3c(C)nc(-c4ccccc4OC)n3c2c1` [Example 86, 6-fluoro-8-methoxy-1-(2-methoxyphenyl)-3-methylimidazo[5,1-c][1,2,4]benzotriazine], for which the results for the IC50 in assay [1] and in assay [2] were 3.39 µM and 0.00833 µM, respectively.

On to `COc1cc(F)c2nnc3c(C)nc(-c4ccncc4)n3c2c1` [Example 87, 6-fluoro-8-methoxy-3-methyl-1-pyridin-4-ylimidazo[5,1-c][1,2,4]benzotriazine], for which the IC50 in assay [1] came to 1.25 µM; in assay [2], 0.246 µM.

For `COc1cc(F)c2nnc3c(C)nc(-c4cc(Cl)ccc4F)n3c2c1` [Example 88, 1-(5-chloro-2-fluorophenyl)-6-fluoro-8-methoxy-3-methylimidazo[5,1-c][1,2,4]benzotriazine], the concentration for half-maximal inhibition (IC50) came to 0.0142 µM in assay [1] and 0.00799 µM in assay [2].

Consider `COc1cc(F)c2nnc3c(C)nc(-c4c(C)noc4C)n3c2c1` [Example 89, 1-(3,5-dimethylisoxazol-4-yl)-6-fluoro-8-methoxy-3-methylimidazo[5,1-c][1,2,4]benzotriazine], for which the IC50 was 0.819 µM in assay [1] and 0.623 µM in assay [2].

Turning to `COc1cc(F)c2nnc3c(C)nc(-c4cccnc4)n3c2c1` [Example 90, 6-fluoro-8-methoxy-3-methyl-1-pyridin-3-ylimidazo[5,1-c][1,2,4]benzotriazine], the half-inhibitory concentration (IC50) in assay [1] was 0.585 µM; in assay [2], 0.386 µM.

As for `COc1cc(F)c2nnc3c(C)nc(-c4sc(C)nc4C)n3c2c1` [Example 91, 1-(2,4-dimethyl-1,3-thiazol-5-yl)-6-fluoro-8-methoxy-3-methylimidazo[5,1-c][1,2,4]benzotriazine], the IC50 was 0.0561 µM in assay [1] and 0.0436 µM in assay [2].

For `COc1cc(F)c2nnc3c(C)nc(-c4cnc(F)c(C)c4)n3c2c1` [Example 92, 6-fluoro-1-(6-fluoro-5-methylpyridin-3-yl)-8-methoxy-3-methylimidazo[5,1-c][1,2,4]benzotriazine], the figures for the IC50 in assay [1] and in assay [2] were 0.469 µM and 0.523 µM, respectively.

As for `COc1cc(F)c2nnc3c(C)nc(-c4ccc(F)nc4C)n3c2c1` [Example 93, 6-fluoro-1-(6-fluoro-2-methylpyridin-3-yl)-8-methoxy-3-methylimidazo[5,1-c][1,2,4]benzotriazine], the results for the concentration for half-maximal inhibition (IC50) in assay [1] and in assay [2] were 0.312 µM and 0.252 µM, respectively.

For `COc1cc(F)c2nnc3c(C)nc(-c4cccnc4F)n3c2c1` [Example 94, 6-fluoro-1-(2-fluoropyridin-3-yl)-8-methoxy-3-methylimidazo[5,1-c][1,2,4]benzotriazine], the values for the IC50 in assay [1] and in assay [2] were 0.127 µM and 0.122 µM, respectively.

As for `COc1cncc(-c2nc(C)c3nnc4c(F)cc(OC)cc4n23)c1` [Example 95, 6-fluoro-8-methoxy-1-(5-methoxypyridin-3-yl)-3-methylimidazo[5,1-c][1,2,4]benzotriazine], the concentration for half-maximal inhibition (IC50) in assay [1] stood at 0.0394 µM; in assay [2] it was 0.0455 µM.

With `COc1cc(F)c2nnc3c(C)nc(-c4c(C)n[nH]c4C)n3c2c1` [Example 96, 1-(3,5-dimethyl-1H-pyrazol-4-yl)-6-fluoro-8-methoxy-3-methylimidazo[5,1-c][1,2,4]benzotriazine], the IC50 in assay [1] amounted to 0.0403 µM; in assay [2], 0.0531 µM.

As for `COc1cc(F)c2nnc3c(C)nc(-c4cnccc4C)n3c2c1` [Example 97, 6-fluoro-8-methoxy-3-methyl-1-(4-methylpyridin-3-yl)imidazo[5,1-c][1,2,4]benzotriazine], the IC50 in assay [1] and in assay [2] was 0.146 µM each time.

As for `COc1cc(F)c2nnc3c(C)nc(-c4cc(C(N)=O)ccc4F)n3c2c1` [Example 98, 4-fluoro-3-(6-fluoro-8-methoxy-3-methylimidazo[5,1-c][1,2,4]benzotriazin-1-yl)benzamide], the IC50 in assay [1] stood at 0.045 µM; in assay [2], 0.0154 µM.

Turning to `COc1cccc(-c2nc(C)c3nnc4c(OC)cc(F)cc4n23)c1` [Example 99, 8-fluoro-6-methoxy-1-(3-methoxyphenyl)-3-methylimidazo[5,1-c][1,2,4]benzotriazine], the figures for the IC50 in assay [1] and in assay [2] were 20 µM and 0.00911 µM, respectively.

As for `COc1ccccc1-c1nc(C)c2nnc3c(OC)cc(F)cc3n12` [Example 100, 8-fluoro-6-methoxy-1-(2-methoxyphenyl)-3-methylimidazo[5,1-c][1,2,4]benzotriazine], the half-inhibitory concentration (IC50) in assay [1] stood at 0.894 µM; in assay [2], 0.00653 µM.

As for `COc1cc(F)cc2c1nnc1c(C)nc(-c3cc(C(F)(F)F)ccc3Cl)n12` [Example 101, 1-[2-chloro-5-(trifluoromethyl)phenyl]-8-fluoro-6-methoxy-3-methylimidazo[5,1-c][1,2,4]benzotriazine], the IC50 in assay [1] was determined as 0.258 µM; in assay [2], 0.043 µM.

Usually IC50 stands for the concentration that gives 50% inhibition.
